From patent US20110020460A1, “GPR 119 MODULATORS” (Pfizer Inc., priority 2009, published 2011)
Where “and” joins values, the source holds several entries; their conditions need not be identical. Equal entries are not always repeated.

Key:
human GPR119 [1] = target: T1, human GPR119 (Homo sapiens, UniProt Q8TDV5); assay: cAMP HTRF functional assay (hGPR119 HEK-CRE beta-lactamase cells); assay type: cell-based; details: for Emax: read-out: Intrinsic Activity* (cAMP)
T1 construct: host or cells: HEK293-CRE-beta-lactamase
T1 sequence (Q8TDV5 1-335): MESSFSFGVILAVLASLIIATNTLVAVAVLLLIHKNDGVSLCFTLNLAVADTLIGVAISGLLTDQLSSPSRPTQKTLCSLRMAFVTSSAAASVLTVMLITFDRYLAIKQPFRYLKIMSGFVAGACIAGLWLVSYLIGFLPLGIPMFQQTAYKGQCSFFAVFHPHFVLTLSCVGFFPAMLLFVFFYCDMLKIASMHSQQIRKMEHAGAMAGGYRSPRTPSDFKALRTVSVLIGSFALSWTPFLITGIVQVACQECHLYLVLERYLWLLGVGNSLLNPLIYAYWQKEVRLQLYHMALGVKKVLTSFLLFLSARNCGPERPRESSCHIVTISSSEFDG
Experimental: GPR119 agonist activity was also determined with a cell-based assay utilizing an HTRF (Homogeneous Time-Resolved Fluorescence) cAMP detection kit (cAMP dynamic 2 Assay Kit; Cis Bio cat #62AM4PEC) that measures cAMP levels in the cell. The method is a competitive immunoassay between native cAMP produced by the cells and the cAMP labeled with the dye d2. The tracer binding is visualized by a Mab anti-cAMP labeled with Cryptate. The specific signal (i.e. energy transfer) is inversely proportional to the concentration of cAMP in either standard or sample.
Following 30 minutes incubation at room temperature, 5 microL of labeled d2 cAMP and 5 microL of anti-cAMP antibody (both diluted 1:20 in cell lysis buffer; as described in the manufacturers assay protocol) were added to each well of the assay plate. […] Raw data were converted to nM cAMP by interpolation from a cAMP standard curve (as described in the manufacturer's assay protocol) and EC50 determinations were made from an agonist-response curves analyzed with a curve fitting program using a 4-parameter logistic dose response equation.

human GPR119 [2] = target: T1, human GPR119; assay: GPR119 radioligand binding assay ([3H]-Compound A or [3H]-Compound B, HEK 293FT membranes); details: Ki from IC50 by Cheng-Prusoff; one value per run; read-out: Human Binding Ki
Experimental: Cells were harvested via centrifugation (3,000×g, 10 minutes), washed once on DPBS (minus Ca++/Mg++), resuspended in 0.25M sucrose, 25 mM HEPES, 0.5 mM EDTA, pH 7.4 and frozen at −80 degrees Celsius.
The frozen cells were thawed on ice and centrifuged at 700×g (1400 rpm) for 10 minutes at 4 degrees Celsius. The cell pellet was resuspended in 20 mL phosphate-buffered saline, and centrifuged at 1400 rpm for 10 minutes. […] Cells were then lysed with 15 gentle strokes of a tight-fitting glass Dounce homogenizer. The homogenate was centrifuged at 1000×g (2200 rpm) for 10 minutes at 4 degrees Celsius. The supernatant was transferred into fresh centrifuge tubes on ice. The cell pellet was resuspended in homogenization buffer, and centrifuged again at 1000×g (2200 rpm) for 10 minutes at 4 degrees Celsius after which the supernatant was removed and the pellet resuspended in homogenization buffer. […] The solution was then centrifuged at 25,000×g (15000 rpm) for 20 minutes at 4 degrees Celsius, the supernatant was discarded, and the pellet was resuspended in fresh homogenization buffer (minus Benzonase and MgCl2). After repeating the 25,000×g centrifugation step, the final membrane pellet was resuspended in homogenization buffer and frozen at −80 degrees Celsius.
2 microL of each dilution was added to appropriate wells of a 96-well plate (each concentration in triplicate).
Membranes expressing GPR119 were thawed and diluted to a final concentration of 20 μg/100 microL per well in Binding Buffer, and 100 microL of diluted membranes were added to each well of 96-well plate.
The plate was incubated for 60 minutes w/shaking at room temperature (approximately 25 degrees Celsius). […] Filters were then washed six times using washing buffer (50 mM Tris-HCl, pH 7.5 kept at 4 degrees Celsius). The filter plates were then air-dyed at room temperature overnight.
IC50 determinations were made from competition curves, analyzed with a proprietary curve fitting program (SIGHTS) and a 4-parameter logistic dose response equation. Ki values were calculated from IC50 values, using the Cheng-Prusoff equation.

human GPR119 [3] = target: T1, human GPR119; assay: beta-lactamase reporter functional assay (hGPR119 HEK293-CRE beta-lactamase cells); assay type: cell-based; details: for EC50: read-out: Human B-lactamase Functional EC50; for Emax: read-out: Intrinsic Activity* (B-lactamase)
Experimental: The assay for GPR119 agonists utilizes a cell-based (hGPR119 HEK293-CRE beta-lactamase) reporter construct where agonist activation of human GPR119 is coupled to beta-lactamase production via a cyclic AMP response element (CRE). GPR119 activity is then measured utilizing a FRET-enabled beta-lactamase substrate, CCF4-AM (Live Blazer FRET-B/G Loading kit, Invitrogen cat #K1027). […] After 4 hours the plating medium was removed and replaced with 40 microL of assay medium (Assay medium is plating medium without potassium clavulanate and HIFBS). Varying concentrations of each compound to be tested was then added in a volume of 10 microL (final DMSO≦0.5%) and the cells were incubated for 16 hours at 37 degrees Celsius in a humidified environment containing 5% carbon dioxide. Plates were removed from the incubator and allowed to equilibrate to room temperature for approximately 15 minutes. 10 microL of 6×CCF4/AM working dye solution (prepared according to instructions in the Live Blazer FRET-B/G Loading kit, Invitrogen cat #K1027) was added per well and incubated at room temperature for 2 hours in the dark. Fluorescence was measured on an EnVision fluorimetric plate reader, excitation 405 nm, emission 460 nm/535 nm. EC50 determinations were made from agonist-response curves analyzed with a curve fitting program using a 4-parameter logistic dose-response equation.

[4] = hGPR119 HEK-CRE beta-lactamase cells, HTRF cAMP, one value per run
[5] = percent of maximal activity relative to standard GPR119 agonist (WO2005121121) at 10 μM, one value per run
[6] = **curve was extrapolated to 100% to calculate an EC50
[7] = hGPR119 HEK293-CRE beta-lactamase cells, one value per run
[8] = percent of maximal activity relative to standard GPR119 agonist (WO2005121121) at 10 microM, one value per run

| EC50 (human GPR119 [1]; [4]) | Emax (human GPR119 [1]; [5]) [%] | Ki (human GPR119 [2]) | EC50 (human GPR119 [3]; [6]) | Emax (human GPR119 [3]; [6]) [%] | EC50 (human GPR119 [1]; [6]) [nM] | Emax (human GPR119 [1]; [6]) [%] | EC50 (human GPR119 [3]; [7]) | Emax (human GPR119 [3]; [8]) [%] | Intrinsic Activity* (cAMP) (human GPR119 [1]; [5]) | Intrinsic Activity* (B-lactamase) (human GPR119 [3]; [8]) | Intrinsic Activity* (B-lactamase) (human GPR119 [3]; percent of maximal activity relative to standard GPR119 agonist (WO2005121121) at 10 microM, one value per run, listed as Exmaple 28) [%] | Compound |
| --- | --- | --- | --- | --- | --- | --- | --- | --- | --- | --- | --- | --- |
| > 10000 nM | 31 | 1700 nM | 5200 nM | 100 | – | – | – | – | – | – | – | Cc1ccccc1OCc1cnn(C2CCN(C(=O)OC(C)C)CC2)c1C#N [Example 12, Isopropyl 4-{5-cyano-4-[(2-methylphenoxy)methyl]-1H-pyrazol-1-yl}piperidine-1-carboxylate] |
| 4550 nM | 99 | > 6100 nM | 4000 nM and 4810 nM | 100 | 4480 | 100 | – | – | – | – | – | CC(C)OC(=O)N1CCC(n2ncc(COc3ccc(-c4nnn[nH]4)cc3F)c2C#N)CC1 [Example 19, Isopropyl 4-(5-cyano-4-((2-fluoro-4-(1H-tetrazol-5-yl)phenoxy)methyl)-1H-pyrazol-1-yl)piperidine-1-carboxylate and Isopropyl 4-(5-cyano-4-((2-fluoro-4-(2H-tetrazol-5-yl)phenoxy)methyl)-1H-pyrazol-1-yl)piperidine-1-carboxylate] |
| 59 nM and 90 nM | 123 | 41 nM and 144 nM | 131 nM | 100 | – | – | 61 nM | 107 | – | – | – | CC(C)OC(=O)N1CCC(n2ncc(COc3ccc(-c4nnnn4C)cc3F)c2C#N)CC1 [Example 20, Isopropyl 4-(5-cyano-4-((2-fluoro-4-(1-methyl-1H-tetrazol-5-yl)phenoxy)methyl)-1H-pyrazol-1-yl)piperidine-1-carboxylate] |
| 44 nM and 32 nM and 57 nM | 33 | 58 nM and 128 nM | – | – | – | – | 688 nM and 201 nM | 100 | 31% and 34% | 96% | – | CC(C)OC(=O)N1CCC(n2ncc(COc3ccc(-c4nnn(C)n4)cc3F)c2C#N)CC1 [Example 21, Isopropyl 4-(5-cyano-4-((2-fluoro-4-(2-methyl-2H-tetrazol-5-yl)phenoxy)methyl)-1H-pyrazol-1-yl)piperidine-1-carboxylate] |
| 394 nM | 27 | 1640 nM and 528 nM | – | – | – | – | 1870 nM and 3400 nM | 102 | – | 100% | – | CC(C)OC(=O)N1CCC(n2ncc(C(C)Oc3ccc(S(C)(=O)=O)cc3F)c2C#N)CC1 (stereo not drawn) [Example 27, Isopropyl 4-(5-cyano-4-{1-[2-fluoro-4-(methylsulfonyl)phenoxy]ethyl}-1H-pyrazol-1-yl)piperidine-1-carboxylate] |
| > 10000 nM | – | > 6100 nM | – | – | – | – | 5 nM and 3 nM | 27 | – | – | 22 | Cc1ncccc1OC(C)c1cnn(C2CCN(C(=O)OC(C)C)CC2)c1C#N (stereo not drawn) [Example 28, Isopropyl 4-(5-cyano-4-{1-[(2-methylpyridin-3-yl)oxy]ethyl}-1H-pyrazol-1-yl)piperidine-1-carboxylate] |
| – | 27 | 1550 nM and 3380 nM | 3010 nM | 100 | – | – | – | – | 33% | – | – | CC(C)OC(=O)N1CCC(n2ncc(CC(C)c3ccc(S(C)(=O)=O)cc3F)c2C#N)CC1 (stereo not drawn) [Example 29, Isopropyl 4-(5-cyano-4-{2-[2-fluoro-4-(methylsulfonyl)phenyl]propyl}-1H-pyrazol-1-yl)piperidine-1-carboxylate] |
| 256 nM and 245 nM | 68 | 2020 nM | – | – | – | – | 136 nM and 166 nM | – | 60% | 113% and 76% | – | Cc1ncccc1OCc1cnn(C2CCN(C(=O)OC3(C)CC3)CC2)c1C#N [Example 30, 1-Methylcyclopropyl 4-(5-cyano-4-{[(2-methylpyridin-3-yl)oxy]methyl}-1H-pyrazol-1-yl)piperidine-1-carboxylate] |
| 66 nM and 64 nM and 58 nM | 66 | 514 nM | – | – | – | – | 281 nM | 86 | 78% and 60% | – | – | CC(C)OC(=O)N1CCC(n2ncc(COc3c(F)ccc(F)c3F)c2C#N)CC1 [Example 32, Isopropyl 4-{5-cyano-4-[(2,3,6-trifluorophenoxy)methyl]-1H-pyrazol-1-yl}piperidine-1-carboxylate] |
| 55 nM and 70 nM | 94 | 87 nM | – | – | – | – | 270 nM | 102 | 78% | – | – | CC(C)OC(=O)N1CCC(n2ncc(COc3ccc(-c4cncn4C)cc3F)c2C#N)CC1 [Example 34, Isopropyl 4-(5-cyano-4-{[2-fluoro-4-(1-methyl-1H-imidazol-5-yl)phenoxy]methyl}-1H-pyrazol-1-yl)piperidine-1-carboxylate] |
| 18 nM and 31 nM | 76 | 31 nM and 29 nM | – | – | – | – | 76 nM and 125 nM | 83 | 66% | 101% | – | Cc1nc(-n2cncn2)ccc1OCc1cnn(C2CCN(C(=O)OC(C)C)CC2)c1C#N [Example 35, Isopropyl 4-[5-cyano-4-({[2-methyl-6-(1H-1,2,4-triazol-1-yl)pyridin-3-yl]oxy}methyl)-1H-pyrazol-1-yl]piperidine-1-carboxylate] |
| 281 nM and 256 nM | – | 521 nM and 1450 nM | – | – | – | – | 848 nM | 100 | 51% and 76% | – | – | Cc1nc(-n2cncn2)ccc1NCc1cnn(C2CCN(C(=O)OC(C)C)CC2)c1C#N [Example 36, Isopropyl 4-[5-cyano-4-({[2-methyl-6-(1H-1,2,4-triazol-1-yl)pyridin-3-yl]amino}methyl)-1H-pyrazol-1-yl]piperidine-1-carboxylate] |
